Experiments:
[1] = test system: EGFR (human), P00533 [delE746-A750]; details: hcc827
[2] = test system: EGFR (Human), P00533 [T790M/L858R]; details: h1975
EGFR (Human), P00533 [T790M/L858R], sequence (P00533 whole entry T790M/L858R, looked up): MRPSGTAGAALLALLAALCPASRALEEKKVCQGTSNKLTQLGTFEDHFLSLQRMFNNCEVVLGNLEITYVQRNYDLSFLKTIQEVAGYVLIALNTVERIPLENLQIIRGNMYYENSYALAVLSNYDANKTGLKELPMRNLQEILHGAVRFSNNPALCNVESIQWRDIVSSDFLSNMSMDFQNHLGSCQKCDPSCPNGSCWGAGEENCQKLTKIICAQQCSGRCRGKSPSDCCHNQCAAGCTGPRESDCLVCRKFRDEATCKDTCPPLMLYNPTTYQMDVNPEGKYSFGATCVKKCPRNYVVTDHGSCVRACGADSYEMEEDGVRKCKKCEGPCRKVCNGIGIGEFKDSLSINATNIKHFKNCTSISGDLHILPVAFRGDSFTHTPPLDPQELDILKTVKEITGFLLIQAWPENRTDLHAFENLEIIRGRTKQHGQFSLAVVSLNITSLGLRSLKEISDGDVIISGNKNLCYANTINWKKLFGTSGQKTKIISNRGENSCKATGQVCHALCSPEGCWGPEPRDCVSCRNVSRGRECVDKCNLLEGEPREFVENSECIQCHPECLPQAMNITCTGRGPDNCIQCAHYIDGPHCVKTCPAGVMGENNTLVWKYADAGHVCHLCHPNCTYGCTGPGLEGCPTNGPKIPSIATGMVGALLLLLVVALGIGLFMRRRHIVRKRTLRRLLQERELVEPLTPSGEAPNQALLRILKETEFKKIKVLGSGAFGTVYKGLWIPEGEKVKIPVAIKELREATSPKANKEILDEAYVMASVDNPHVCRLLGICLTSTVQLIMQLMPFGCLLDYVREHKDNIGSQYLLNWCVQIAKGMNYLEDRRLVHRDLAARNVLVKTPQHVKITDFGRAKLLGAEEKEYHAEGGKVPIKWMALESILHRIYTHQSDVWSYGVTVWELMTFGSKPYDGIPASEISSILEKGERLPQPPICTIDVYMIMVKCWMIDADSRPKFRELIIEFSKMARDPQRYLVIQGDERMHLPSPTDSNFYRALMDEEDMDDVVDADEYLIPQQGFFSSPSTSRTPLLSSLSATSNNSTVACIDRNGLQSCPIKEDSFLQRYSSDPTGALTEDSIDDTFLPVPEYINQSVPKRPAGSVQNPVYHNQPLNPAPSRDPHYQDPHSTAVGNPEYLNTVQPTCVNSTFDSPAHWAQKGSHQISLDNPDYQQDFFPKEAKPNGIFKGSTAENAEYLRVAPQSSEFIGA

EGFR (human), P00533 [delE746-A750], sequence (P00533 whole entry, looked up, stated change not applied): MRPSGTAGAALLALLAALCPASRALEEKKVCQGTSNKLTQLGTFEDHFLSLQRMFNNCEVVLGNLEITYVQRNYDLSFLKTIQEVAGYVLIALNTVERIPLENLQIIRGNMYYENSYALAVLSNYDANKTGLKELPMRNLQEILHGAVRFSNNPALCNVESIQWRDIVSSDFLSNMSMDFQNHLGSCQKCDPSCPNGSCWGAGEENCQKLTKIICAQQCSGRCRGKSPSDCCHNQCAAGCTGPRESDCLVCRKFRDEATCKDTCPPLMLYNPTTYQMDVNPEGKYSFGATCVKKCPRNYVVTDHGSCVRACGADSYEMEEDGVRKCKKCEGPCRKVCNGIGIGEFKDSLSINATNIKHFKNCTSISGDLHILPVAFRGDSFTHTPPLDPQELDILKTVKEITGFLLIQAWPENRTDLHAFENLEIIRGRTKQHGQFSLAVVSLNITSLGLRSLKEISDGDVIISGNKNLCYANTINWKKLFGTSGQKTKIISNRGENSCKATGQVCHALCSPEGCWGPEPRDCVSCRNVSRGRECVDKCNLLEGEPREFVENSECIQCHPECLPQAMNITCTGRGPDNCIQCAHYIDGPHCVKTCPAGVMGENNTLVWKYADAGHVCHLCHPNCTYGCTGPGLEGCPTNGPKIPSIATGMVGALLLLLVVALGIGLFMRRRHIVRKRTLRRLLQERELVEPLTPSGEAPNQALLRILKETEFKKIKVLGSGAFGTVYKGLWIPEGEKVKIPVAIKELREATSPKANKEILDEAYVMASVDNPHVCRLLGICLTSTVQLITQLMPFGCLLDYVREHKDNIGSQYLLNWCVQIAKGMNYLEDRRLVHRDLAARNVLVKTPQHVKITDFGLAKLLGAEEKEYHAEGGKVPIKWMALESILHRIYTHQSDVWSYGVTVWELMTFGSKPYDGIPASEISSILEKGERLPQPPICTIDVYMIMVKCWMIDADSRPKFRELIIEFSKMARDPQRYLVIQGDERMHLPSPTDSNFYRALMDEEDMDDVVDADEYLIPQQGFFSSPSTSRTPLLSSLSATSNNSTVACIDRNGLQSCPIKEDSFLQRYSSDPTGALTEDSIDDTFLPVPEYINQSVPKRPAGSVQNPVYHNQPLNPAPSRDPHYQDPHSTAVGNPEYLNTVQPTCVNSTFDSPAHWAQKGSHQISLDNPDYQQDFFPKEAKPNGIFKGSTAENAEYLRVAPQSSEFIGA

Row | Compound | GI50 [1] [nM] | GI50 [2] [nM]
1 | C=CC(=O)Nc1cccc(Nc2nc(Nc3ccc(OC)c(OC)c3OC)ncc2Br)c1 | 100 to 500 | –
2 | C=CC(=O)Nc1cccc(Oc2nc(Nc3ccc(OC)cc3OC)ncc2C(F)(F)F)c1 | 100 to 500 | 100 to 500
3 | C=CC(=O)Nc1cccc(Oc2nc(Nc3ccc(OC)c(OC)c3OC)ncc2C(F)(F)F)c1 | 100 to 500 | 100 to 500
4 | C=CC(=O)Nc1cccc(Nc2nc(Nc3ccccc3OC)ncc2C(F)(F)F)c1 | 10 to 100 | 100 to 500
5 | C=CC(=O)Nc1cccc(Oc2nc(Nc3ccccc3OC)ncc2C(F)(F)F)c1 | 100 to 500 | –
6 | C=CC(=O)Nc1cccc(Oc2nc(Nc3ccc(OC)cc3OC)ncc2Br)c1 | – | 500 to 1000
7 | C=CC(=O)Nc1cccc(Nc2nc(Nc3ccccc3OC)ncc2Br)c1 | 500 to 1000 | 500 to 1000
8 | C=CC(=O)Nc1cccc(Nc2nc(Nc3ccccc3OC)ncc2Cl)c1 | 500 to 1000 | –
9 | C=CC(=O)Nc1cccc(Oc2nc(Nc3ccc(OC)c(OC)c3OC)ncc2Cl)c1 | 100 to 500 | 100 to 500
10 | C=CC(=O)Nc1cccc(Nc2nc(Nc3cccc(OC)c3OC)ncc2C(F)(F)F)c1 | 500 to 1000 | –
11 | C=CC(=O)Nc1cccc(Oc2nc(Nc3ccccc3OC)ncc2F)c1 | 100 to 500 | –
12 | C=CC(=O)Nc1cccc(Nc2nc(Nc3ccc(OC)cc3OC)ncc2Br)c1 | 100 to 500 | –
13 | C=CC(=O)Nc1cccc(Oc2nc(Nc3cccc(OC)c3OC)ncc2Br)c1 | 500 to 1000 | 500 to 1000
14 | C=CC(=O)Nc1cccc(Nc2nc(Nc3ccc(OC)c(OC)c3OC)ncc2C(F)(F)F)c1 | 10 to 100 | 100 to 500
15 | C=CC(=O)Nc1cccc(Nc2nc(Nc3ccc(OC)cc3OC)ncc2Cl)c1 | 500 to 1000 | –

Source: the Kinase Knowledgebase extract (Sharma et al. 2016)
